Experimental data as given in ChEMBL document CHEMBL5120788, “Structure-activity relationship studies of functionalized aromatic peptidomimetics as neurolysin activators” (Bioorg Med Chem Lett, 2022).

Key:
[1] = biological target: Neurolysin, mitochondrial (Rattus norvegicus, UniProt P42676); assay: Activation of recombinant rat Nln using MCA-Pro-Leu-Gly-Pro-D-Lys (DNP)-OH as substrate preincubated for 10 mins followed by substrate addition and measured after 20 mins by fluorescence based assay
Chain of Neurolysin, mitochondrial (P42676 whole entry): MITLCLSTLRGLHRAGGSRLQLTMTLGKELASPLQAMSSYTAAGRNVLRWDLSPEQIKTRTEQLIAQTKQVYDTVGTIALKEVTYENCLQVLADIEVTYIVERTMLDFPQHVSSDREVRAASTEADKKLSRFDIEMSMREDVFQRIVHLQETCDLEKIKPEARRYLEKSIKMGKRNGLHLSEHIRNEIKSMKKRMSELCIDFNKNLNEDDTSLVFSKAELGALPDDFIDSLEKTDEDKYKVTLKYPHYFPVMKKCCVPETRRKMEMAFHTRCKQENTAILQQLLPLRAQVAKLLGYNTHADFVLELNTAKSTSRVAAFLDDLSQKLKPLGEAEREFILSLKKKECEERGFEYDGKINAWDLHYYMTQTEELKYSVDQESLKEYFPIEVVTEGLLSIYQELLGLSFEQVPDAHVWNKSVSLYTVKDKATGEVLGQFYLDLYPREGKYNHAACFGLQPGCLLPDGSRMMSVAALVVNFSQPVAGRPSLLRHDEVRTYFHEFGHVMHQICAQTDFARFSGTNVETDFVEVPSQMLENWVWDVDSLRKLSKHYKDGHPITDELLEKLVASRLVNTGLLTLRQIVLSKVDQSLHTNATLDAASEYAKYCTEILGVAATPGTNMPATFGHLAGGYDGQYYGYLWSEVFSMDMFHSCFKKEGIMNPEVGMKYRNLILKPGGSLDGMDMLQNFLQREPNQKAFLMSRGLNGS

[2] = biological target: Neurolysin, mitochondrial (Rattus norvegicus) (UniProt P42676); assay: Activation of recombinant rat Nln assessed as maximal efficacy using MCA-Pro-Leu-Gly-Pro-D-Lys (DNP)-OH as substrate preincubated for 10 mins followed by substrate addition and measured after 20 mins by fluorescence based assay relative to control; settings: filed as activator, time 30.0 min
Chain of Neurolysin, mitochondrial (Rattus norvegicus) (P42676 38-704 limits assumed): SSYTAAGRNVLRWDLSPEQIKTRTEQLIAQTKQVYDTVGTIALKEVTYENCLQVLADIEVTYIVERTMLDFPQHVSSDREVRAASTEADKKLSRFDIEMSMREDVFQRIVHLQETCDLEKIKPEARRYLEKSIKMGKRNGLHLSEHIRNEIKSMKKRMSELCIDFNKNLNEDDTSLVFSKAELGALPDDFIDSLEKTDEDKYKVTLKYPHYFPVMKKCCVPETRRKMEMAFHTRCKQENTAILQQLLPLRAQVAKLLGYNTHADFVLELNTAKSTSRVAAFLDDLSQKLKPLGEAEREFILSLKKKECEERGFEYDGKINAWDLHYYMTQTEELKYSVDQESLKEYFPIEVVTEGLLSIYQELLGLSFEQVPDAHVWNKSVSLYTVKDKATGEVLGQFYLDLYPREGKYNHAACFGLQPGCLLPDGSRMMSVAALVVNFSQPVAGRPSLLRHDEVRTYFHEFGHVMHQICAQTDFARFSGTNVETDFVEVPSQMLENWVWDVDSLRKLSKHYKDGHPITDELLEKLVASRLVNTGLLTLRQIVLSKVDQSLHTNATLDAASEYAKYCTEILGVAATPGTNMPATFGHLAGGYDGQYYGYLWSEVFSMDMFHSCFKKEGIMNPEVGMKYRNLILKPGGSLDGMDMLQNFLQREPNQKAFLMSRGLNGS

[3] = Permeability of compound in mouse BEND3 cells co-cultured with mouse primary astrocytes measured upto 120 mins by LC-MS/MS; format: ADME, cell-based; settings: 2 h

| EC50 [1] | Emax [2] | permeability [3] | Structure (SMILES) |
| --- | --- | --- | --- |
| 279 µM | 633% |  | N[C@@H](Cc1c[nH]cn1)C(=O)Nc1cc(C(F)(F)F)cc(C(F)(F)F)c1 |
| 52.1 µM | 463% | Permeable | COc1cc(NC(=O)[C@@H](N)Cc2c[nH]cn2)cc(OC)c1 |
| 26.7 µM | 370% |  | N[C@@H](Cc1c[nH]cn1)C(=O)Nc1c(F)cc(Br)cc1F |
| 24.8 µM | 382% |  | N[C@@H](Cc1c[nH]cn1)C(=O)Nc1cccc(F)c1 |
| 45.1 µM | 426% |  | COc1ccccc1NC(=O)[C@@H](N)Cc1c[nH]cn1 |
| 22.8 µM | 362% |  | N[C@H](Cc1c[nH]cn1)C(=O)Nc1cccc(C(F)(F)F)c1 |
| 15.6 µM | 325% | Permeable | N[C@H](Cc1c[nH]cn1)C(=O)Nc1ccc(C(F)(F)F)cc1 |
| 117 µM | 436% |  | COc1cc(NC(=O)[C@@H](N)Cc2c[nH]cn2)cc(OC)c1OC |
| 78.2 µM | 331% |  | N[C@H](Cc1c[nH]cn1)C(=O)Nc1ccccc1F |
| 36.1 µM | 403% |  | N[C@H](Cc1c[nH]cn1)C(=O)Nc1ccc(F)cc1 |
| 32.2 µM | 335% |  | N[C@@H](Cc1c[nH]cn1)C(=O)Nc1ccc(C(F)(F)F)cc1 |
| 105 µM | 454% |  | COc1cccc(NC(=O)[C@@H](N)Cc2c[nH]cn2)c1 |

Second part, the compound before the results:

| Structure (SMILES) | EC50 [1] | Emax [2] | permeability [3] |
| --- | --- | --- | --- |
| N[C@@H](Cc1c[nH]cn1)C(=O)Nc1ccccc1F | 37.5 µM | 268% |  |
| COc1ccc(NC(=O)[C@H](N)Cc2c[nH]cn2)cc1 | 214 µM | 540% |  |
| COc1ccccc1NC(=O)[C@H](N)Cc1c[nH]cn1 | 53.5 µM | 428% |  |
| N[C@@H](Cc1c[nH]cn1)C(=O)Nc1ccc(C(F)(F)F)cc1C(F)(F)F | 25.2 µM | 368% |  |
| N[C@@H](Cc1c[nH]cn1)C(=O)Nc1cc(F)cc(F)c1 | 90.6 µM | 431% |  |
| N[C@H](Cc1c[nH]cn1)C(=O)Nc1cccc(F)c1 | 30.9 µM | 396% |  |
| N[C@@H](Cc1c[nH]cn1)C(=O)Nc1cccc(C(F)(F)F)c1 | 28.6 µM | 312% |  |
| N[C@@H](Cc1c[nH]cn1)C(=O)Nc1ccc(F)cc1 | 136 µM | 488% |  |
| COc1cccc(NC(=O)[C@H](N)Cc2c[nH]cn2)c1 | 121 µM | 478% |  |
| COc1ccc(NC(=O)[C@@H](N)Cc2c[nH]cn2)cc1 | 241 µM | 582% |  |
